Data taken from patent publication EP4434515A1, “CBD FOR OCULAR USE” (Laboratoire Laredo S.L., priority 2023, dated 2024).
Read-outs that look alike come from different tables or passages of the source.

How the values were obtained:
[1] = CBD release from micelles through the HA hydrogel into simulated tear fluid, HPLC; type: physicochemical; conditions: after 12 h, simulated tear fluid as receiving medium
Experimental: Next, an assay of CBD release from micelles through the HA hydrogel was carried out for 24 hours (the time that the gel will be in contact with the eye), using STF (simulated tear fluid: NaCl (0.68 g), NaHCO3 (0.22 g), CaCl2·2H2O (0.008 g), KCI (0.14 g), and type II water to a total volume of 100 ml, filtered through a 0.2 µm pore size filter) as the receiving medium in order to recapitulate as much as possible release in tears, and taking samples at 1, 3, 5 8, 12 and 24 h. High-Performance Liquid Chromatography (HPLC) was the analytical technique that allowed the separation, identification (by comparison with standard patterns) and quantification, using a reverse phase and mobile phase under certain conditions; a mixture of methanol and water (85:15). The other conditions are as follows; flow rate of 1.0 ml/min, injection volume 10 µl and wavelength at 220 nm. Under the conditions mentioned above, a good determination of the CBD can be carried out.

[2] = test system: DBA/2J mice; test: Intraocular pressure (IOP) by rebound tonometry in glaucoma model mice; type: in vivo
Experimental: The study of the effects of topical ophthalmic CBD administration in micelles was carried out with outbred CD-1 mice and inbred DBA/2J mice. Male JAXTM DBA/2J mice homozygous for null mutations in Tyrplb and GpnmbR150X (-/-) were purchased from Charles River Laboratories (France). CD-1® IGS male mice were obtained from the animal facilities of Universidad Rey Juan Carlos, using 51 mice in total for the study . All animals were 4 weeks-old at the beginning of the study. They were maintained in a temperature (23 ± 1 °C) and humidity (50-55%) controlled room, under a 12 h light/dark cycle (lights off between 19:00 and 07.00 h). Animals had free access to standard laboratory rat chow (Harlan Laboratories Inc.) and tap water. Trained investigators blind to drug treatment conducted all the behavioural assays in groups of two. Experiments were performed between 8:00 and 11:00 a.m. in conscious animals. All animal procedures were designed and conducted in accordance with a protocol approved by the Ethical Committee of Universidad Rey Juan Carlos and by the Autonomous Region of Madrid (PROEX 187.3/21) and followed the guidelines for the Care and Use of Laboratory Animals of the European Union Directive (2010/63/EU) and Spanish regulations (Law 32/2007, RD 53/2013 and order ECC/566/2015). A total of 51 male mice were utilised in this study, as explained in section 2.2 below. The number of animals used and their suffering were minimised
(§1) The research plan designed with the animal model is depicted in Fig. 3. It comprises three main phases: • An ageing phase, which includes an initial 3-month period of quarantine and acclimatisation and an additional 4.5-month period during which IOP (from month 3 until month 7,5), tear production (from month 5,5 until month 7,5) and tactile sensitivity (from month 4 to month 7,5) are monitored to obtain a baseline for such magnitudes. • A treatment phase, beginning when mice were 8 months old, where DBA/2J and CD-1 animals were randomly divided into two groups: treated and untreated. In this phase, treated mice receive CBD doses. The treatment phase comprises 3 periods: an acute period of 1 day, where, at time 0 of the phase, mice receive a CBD dose and are monitored for 24 hours; an initial chronic period of 18 days (days 2 to 19 of the treatment phase), where mice receive a daily CBD dose, and a second chronic period of other […] (days 21 to 37 of the treatment phase), where mice receive 2 daily CBD doses. From the end of the ageing phase to the end of the following phase, the wear-off phase, IOP, tear production and tactile sensitivity are monitored three times per week, following an alternative measuring system: on a same day, IOP was monitored in two groups, while tear production and tactile sensitivity were monitored in the other two groups, while, on the following measuring day, tear production and tactile sensitivity were monitored in the first two groups and IOP was monitored in the other two groups. • A wear-off phase, during which mice receive no treatment and IOP tear production and tactile sensitivity are monitored at 24, 48, 72 and 96 hours after the beginning of the phase, following the same alternative system of the treatment phase.
CBD was administered as part of a micellar solution prepared as described in Example 1. In particular, in each dose, 5 µl of the micellar solution (with 5 mM CBD) was administered to one eye of each mice, while the other eye remained untreated or received only the vehicle, type II water. Treatment was always applied to the right eye. A different group of animals was treated during two weeks with the vehicle to ensure that it had no effect on IOP, corneal mechanical sensitivity or spontaneous production of tear.
Measurements during the chronic treatment phase were always taken prior to daily administration. At each time point indicated in the chart of Fig. 3, rebound tonometry or von Frey test was performed in the same group of animals. […]

[3] = test system: CD-1 mice; test: Corneal mechanical sensitivity, von Frey test; type: in vivo; conditions: treated vs untreated
From the text: as §1, with “phase. […]” for “phase.”
(§2) The study was carried out with the same DBA/2J animals used in the study of section 2.3, taking measures of tactile sensitivity in days different from those where IOP was measured, as scheduled in Fig. 3 and Table 3. […]
(§3) Corneal mechanical sensitivity was measured following the von Frey test. […]

[4] = test system: DBA/2J mice; test: Corneal mechanical sensitivity, von Frey test; type: in vivo
From the text: as §1, with “phase. […]” for “phase.”
as §2, §3

[5] = test system: CD-1 mice; test: Spontaneous production of tear, Schirmer test; type: in vivo; conditions: treated vs untreated
From the text: (§4) The research plan designed with the animal model is depicted in Fig. 3. It comprises three main phases: • An ageing phase, which includes an initial 3-month period of quarantine and acclimatisation and an additional 4.5-month period during which IOP (from month 3 until month 7,5), tear production (from month 5,5 until month 7,5) and tactile sensitivity (from month 4 to month 7,5) are monitored to obtain a baseline for such magnitudes. • A treatment phase, beginning when mice were 8 months old, where DBA/2J and CD-1 animals were randomly divided into two groups: treated and untreated. In this phase, treated mice receive CBD doses. The treatment phase comprises 3 periods: an acute period of 1 day, where, at time 0 of the phase, mice receive a CBD dose and are monitored for 24 hours; an initial chronic period of 18 days (days 2 to 19 of the treatment phase), where mice receive a daily CBD dose, and a second chronic period of other 18 days (days 21 to 37 of the treatment phase), where mice receive 2 daily CBD doses. […]
(§5) Their analysis was carried out following the Von Schirmmer test, which consisted of an ophthalmologic examination used to measure tear production in the eyes by inserting a small special piece of absorbent paper in the corner of the eye to measure the amount of tears produced in a determined period of time. […] Then, the area of the wet test paper was measured (length x width).

[6] = test system: DBA/2J mice; test: Spontaneous production of tear, Schirmer test; type: in vivo; conditions: treated vs untreated
From the text: as §4, §5

[7] = Body weight and welfare (actual severity of the procedure); type: in vivo, mice
Experimental: In order to assess the actual severity of the treatment at the end of the procedure, the rates of mortality and morbidity were also recorded. Additionally, body weight measurements were […] during the study, as body weight is considered to be a sign of welfare.
The values obtained are represented in Fig. 11. Additionally, the rate with regard to the value at month 7.8 (where CBD has not been administered yet) was calculated by one-way ANOVA followed by Dunnett's Multiple Comparisons test, a statistical test used to compare multiple treatment groups with a control group. Ia applicable when multiple treatment groups are present and it is desired it determine if any of them are statistically different from the control group, is often used when it is assumed that the variance is equal among all groups The results were over 10% decrease in body weight is normally considered as a severe effect of welfare, and such a level of decrease was not found in the present study for none of the mice.

[8] = topical, cited from earlier work
[9] = test system: wildtype mice; conditions: high dose, soya oil/water emulsion; cited from earlier work
[10] = test system: CB1 knockout mice; conditions: high dose, soya oil/water emulsion; cited from earlier work
[11] = Acute, hour 1 after single dose
[12] = Chronic, day 12, one daily dose
[13] = Chronic, day 16, one daily dose
[14] = Chronic, day 21, two daily doses
[15] = Chronic, day 26, two daily doses
[16] = Chronic, day 30, two daily doses
[17] = Chronic, day 35, two daily doses
[18] = one week after finishing the treatment

SMILES: C=C(C)[C@@H]1CCC(C)=C[C@H]1c1c(O)cc(CCCCC)cc1O [CBD, cannabidiol]
- CBD release [1]: higher than 90%
- Δ[contra-(treated)-contra-(non-treated)] [2, 11]: +95%
- Δ[ipsi-(treated)-ipsi-(non-treated)] [2, 11]: +69%
- IOP ratio tn/t0, ipsi- (treated) ([2]; Acute, hour 1 after single dose, treated ipsilateral eye, t0 = month 3.0): 180%
- IOP ratio tn/t0, contra- (treated) ([2]; Acute, hour 1 after single dose, untreated contralateral eye, t0 = month 3.0): 192%
- Δ[contra-(treated)-contra-(non-treated)] ([2]; Chronic, day 3, one daily dose): +80%
- Δ[ipsi-(treated)-ipsi-(non-treated)] ([2]; Chronic, day 3, one daily dose): +35%
- IOP ratio tn/t0, contra- (treated) ([2]; Chronic, day 3, one daily dose, contralateral eye): 131%
- IOP ratio tn/t0, ipsi- (treated) ([2]; Chronic, day 3, one daily dose, ipsilateral eye): 130%
- Δ[contra-(treated)-contra-(non-treated)] ([2]; Chronic, day 7, one daily dose): +49%
- Δ[ipsi-(treated)-ipsi-(non-treated)] ([2]; Chronic, day 7, one daily dose): -35%
- IOP ratio tn/t0, contra- (treated) ([2]; Chronic, day 7, one daily dose, contralateral eye): 119%
- IOP ratio tn/t0, ipsi- (treated) ([2]; Chronic, day 7, one daily dose, ipsilateral eye): 101%
- Δ[contra-(treated)-contra-(non-treated)] [2, 12]: +30%
- Δ[ipsi-(treated)-ipsi-(non-treated)] [2, 12]: -89%
- IOP ratio tn/t0, contra- (treated) ([2]; Chronic, day 12, one daily dose, contralateral eye): 128%
- IOP ratio tn/t0, ipsi- (treated) ([2]; Chronic, day 12, one daily dose, ipsilateral eye): 104%
- Δ[contra-(treated)-contra-(non-treated)] [2, 13]: -85%
- Δ[ipsi-(treated)-ipsi-(non-treated)] [2, 13]: -174%
- IOP ratio tn/t0, contra- (treated) ([2]; Chronic, day 16, one daily dose, contralateral eye): 117%
- IOP ratio tn/t0, ipsi- (treated) ([2]; Chronic, day 16, one daily dose, ipsilateral eye): 77%
- Δ[contra-(treated)-contra-(non-treated)] [2, 14]: -60%
- Δ[ipsi-(treated)-ipsi-(non-treated)] [2, 14]: -81%
- IOP ratio tn/t0, contra- (treated) ([2]; Chronic, day 21, two daily doses, contralateral eye): 100%
- IOP ratio tn/t0, ipsi- (treated) ([2]; Chronic, day 21, two daily doses, ipsilateral eye): 90%
- Δ[contra-(treated)-contra-(non-treated)] [2, 15]: -137%
- Δ[ipsi-(treated)-ipsi-(non-treated)] [2, 15]: -79%
- IOP ratio tn/t0, contra- (treated) ([2]; Chronic, day 26, two daily doses, contralateral eye): 97%
- IOP ratio tn/t0, ipsi- (treated) ([2]; Chronic, day 26, two daily doses, ipsilateral eye): 95%
- Δ[contra-(treated)-contra-(non-treated)] [2, 16]: -119%
- Δ[ipsi-(treated)-ipsi-(non-treated)] [2, 16]: -159%
- IOP ratio tn/t0, contra- (treated) ([2]; Chronic, day 30, two daily doses, contralateral eye): 113%
- IOP ratio tn/t0, ipsi- (treated) ([2]; Chronic, day 30, two daily doses, ipsilateral eye): 68%
- Δ[contra-(treated)-contra-(non-treated)] [2, 17]: -88%
- Δ[ipsi-(treated)-ipsi-(non-treated)] [2, 17]: -82%
- IOP ratio tn/t0, contra- (treated) ([2]; Chronic, day 35, two daily doses, contralateral eye): 96%
- IOP ratio tn/t0, ipsi- (treated) ([2]; Chronic, day 35, two daily doses, ipsilateral eye): 81%
- Δ[contra-(treated)-contra-(non-treated)] ([2]; Wear-off, day 38, no treatment): -44%
- Δ[ipsi-(treated)-ipsi-(non-treated)] ([2]; Wear-off, day 38, no treatment): -78%
- IOP ratio tn/t0, contra- (treated) ([2]; Wear-off, day 38, no treatment, contralateral eye): 64%
- IOP ratio tn/t0, ipsi- (treated) ([2]; Wear-off, day 38, no treatment, ipsilateral eye): 81%
- Δ[contra-(treated)-contra-(non-treated)] ([2]; Wear-off, day 40, no treatment): -34%
- Δ[ipsi-(treated)-ipsi-(non-treated)] ([2]; Wear-off, day 40, no treatment): -70%
- IOP ratio tn/t0, contra- (treated) ([2]; Wear-off, day 40, no treatment, contralateral eye): 171%
- IOP ratio tn/t0, ipsi- (treated) ([2]; Wear-off, day 40, no treatment, ipsilateral eye): 165%
- IOP relative to the untreated group ([2]; acute administration (one dose)): increased IOP
- IOP difference relative to the untreated group ([2]; after giving two doses (daily)): -80%
- IOP compared with the untreated group [2, 18]: still reduced
- IOP relative to the untreated group, late phase ([2]; repeated administration, 7 days on): decreased values
- corneal mechanical sensitivity [3]: no significant effect
- corneal mechanical sensitivity relative to the untreated group ([4]; acute administration): decreased mechanical sensitivity
- corneal mechanical sensitivity [4, 18]: still reduced
- spontaneous production of tear [5]: no significant effect
- spontaneous production of tear [6]: no significant effect
- welfare ([7]; ocular topical administration): no severe affection of welfare
- body weight decrease with regard to the weight before beginning the treatment ([7]; phase of repeated CBD administration, DBA/2J and CD-1 mice, larger in CD-1): lower than 10%
- effect on IOP ([8]; delivered in mineral oil): IOP-lowering effect
- effect on IOP ([8]; delivered in sesame oil): absent
- effect on IOP [9]: increases IOP
- effect on IOP [10]: decreases IOP
